These are literature values, as cited in patent US5872104A, “Combinations and methods for reducing antimicrobial resistance” (Oridigm Corporation, priority 1994, dated 1999).

Structures are written as SMILES. Values after ≈ are worked out from the molar mass of the structure shown. Bounds are passed on as bounds.

In data set [1] the test system is Staphylococcus aureus, methicillin susceptible. To be noted: in µg/mL; cited from earlier work.
Data set [2] has as its system Staphylococcus aureus, methicillin resistant. The conditions noted are these: cited from earlier work.
In data set [3] the test system is Streptococcus pyogenes (group A), erythromycin susceptible. To be noted: cited from earlier work.
In another data set the test system is Streptococcus pneumoniae. To be noted: in µg/mL; cited from earlier work.
Data set [4] relates to Streptococcus agalactactiae (group B). The conditions noted are these: in µg/mL; cited from earlier work.
In the next data set the test system is Viridans streptococci. To be noted: cited from earlier work.
In the next data set the test system is Listeria monocytogenes. To be noted: in µg/mL; cited from earlier work.
Another data set deals with Haemophilus influenzae. The conditions noted are these: in µg/mL; cited from earlier work.
Another data set has as its system Moraxella catarrhalis. To be noted: in µg/mL; cited from earlier work.
Another data set relates to Neisseria gonorrhoeae. To be noted: in µg/mL; cited from earlier work.
A further data set deals with Legionella pneumophila. To be noted: in µg/mL; cited from earlier work.
The test system of another data set is Campylobacter species. To be noted: in µg/mL; cited from earlier work.
In the next data set the test system is Bacteroides fragilis. To be noted: anaerobes; in µg/mL; cited from earlier work.
The test system of the next data set is Clostridium perfringens. To be noted: anaerobes; in µg/mL; cited from earlier work.
In data set [5] the test system is Chlamydia pneumoniae (formerly TWAR). To be noted: in µg/mL; cited from earlier work.
In the next data set the test system is Chlamydia trachomatis. The conditions noted are these: in µg/mL; cited from earlier work.
For another data set, the system named is Mycoplasma pneumoniae. The conditions noted are these: in µg/mL; cited from earlier work.
For data set [6] the following is noted: versus erythromycin; cited from earlier work.
In a further data set the test system is H. influenzae. To be noted: versus erythromycin; cited from earlier work.

For the molecule `CC[C@H]1OC(=O)[C@H](C)[C@@H](O[C@H]2C[C@@](C)(OC)[C@@H](O)[C@H](C)O2)[C@H](C)[C@@H](O[C@@H]2O[C@H](C)C[C@H](N(C)C)[C@H]2O)[C@](C)(OC)C[C@@H](C)C(=O)[C@H](C)[C@@H](O)[C@]1(C)O` [Clarithromycin], the MIC90 in data set [1] was 0.12-0.24; in [2], more than 128 µg/mL; in [3], 0.015 µg/mL (≈ 0.0201 µM); with Streptococcus pneumoniae it was 0.015; in data set [4] it was 0.03-0.25; in the data set on Viridans streptococci, 0.03 µg/mL (≈ 0.0401 µM). Further, the MIC90 in the data set on Listeria monocytogenes is 0.12-2.0; in the data set with Haemophilus influenzae, 2.0-16.0; in the data set with Moraxella catarrhalis, 0.25-1.0; in the data set on Neisseria gonorrhoeae, 0.25-2.0; in the data set on Legionella pneumophila, 0.25; in the data set with Campylobacter species, 1.0-8.0. Further, the MIC90 with Bacteroides fragilis is recorded as 2.0-8.0; in the data set on Clostridium perfringens, 0.5-2.0; in data set [5], 0.007; with Chlamydia trachomatis it was 0.06-0.125; in the data set with Mycoplasma pneumoniae it was 0.008-0.03. Moreover, the stability entry in [6] is reported as “better stability properties”. Further, in the data set on H. influenzae, the H. influenzae activity entry is “enhanced H. influenzae activity”.
